For assay [1], the target named is T1, Heat shock factor protein 1 (Mus musculus, UniProt P38532).
T1 sequence (P38532 whole entry): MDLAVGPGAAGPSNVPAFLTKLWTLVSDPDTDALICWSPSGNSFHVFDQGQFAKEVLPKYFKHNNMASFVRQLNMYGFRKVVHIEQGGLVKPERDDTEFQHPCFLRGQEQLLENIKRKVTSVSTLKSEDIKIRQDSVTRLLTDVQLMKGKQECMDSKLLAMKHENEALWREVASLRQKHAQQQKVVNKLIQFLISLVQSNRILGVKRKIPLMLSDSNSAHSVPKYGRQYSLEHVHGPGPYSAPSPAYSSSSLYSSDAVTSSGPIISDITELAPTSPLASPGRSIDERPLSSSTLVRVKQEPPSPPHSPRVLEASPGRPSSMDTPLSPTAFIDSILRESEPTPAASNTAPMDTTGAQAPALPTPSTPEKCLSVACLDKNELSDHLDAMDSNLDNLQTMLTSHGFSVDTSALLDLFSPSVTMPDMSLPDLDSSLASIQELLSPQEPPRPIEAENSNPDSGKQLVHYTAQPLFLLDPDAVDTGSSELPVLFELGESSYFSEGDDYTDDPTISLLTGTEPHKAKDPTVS
As to the kind of experiment: decrease of HSF1-responsive luciferase luminescence – cell-based, NIH3T3, dose retest, confirmation (AID 2382).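 Note: NIH3T3 fibroblasts with HSF1-driven luciferase reporter stressed by proteasome inhibitor MG132; luminescence from HSF1-driven luciferase expression after 8 hours of MG132 stress.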 It is filed as functional.

A short description of assay [2]: Trypanosoma cruzi growth suppression in host cells – NIH3T3 host cells, beta-gal luminescence, confirmation (AID 2044).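 Note: intracellular parasites grown in NIH/3T3 mouse fibroblasts as host cells; luminescent beta-galactosidase reporter signal from transgenic T. cruzi replicating inside host cells; inhibitors lower the luminescence signal.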 It is filed as functional, cell-based.
Assay [3] in a line: NIH3T3 cell viability loss – ATP luminescence, mouse fibroblasts, counter-screen, dose response (AID 2010).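 Note: cells exposed to compound for about 90 hours before reading.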 It is filed as functional, cell-based. In general terms: The purpose of a counterscreen is to sort out artefacts and off-target activity.
Assay [4] addresses Cytochrome P450 2C9 (Homo sapiens, UniProt P11712).
Assay [5] concerns the target Cytochrome P450 3A4 (Homo sapiens, UniProt P08684).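 Note: CYP3A4 tested as one member of a cytochrome P450 panel screen.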
In assay [6] the target is T2, Corticotropin-releasing factor receptor 2/Corticotropin-releasing factor-binding protein (Homo sapiens, UniProt P24387+Q13324).
T2 sequence (Q13324 whole entry): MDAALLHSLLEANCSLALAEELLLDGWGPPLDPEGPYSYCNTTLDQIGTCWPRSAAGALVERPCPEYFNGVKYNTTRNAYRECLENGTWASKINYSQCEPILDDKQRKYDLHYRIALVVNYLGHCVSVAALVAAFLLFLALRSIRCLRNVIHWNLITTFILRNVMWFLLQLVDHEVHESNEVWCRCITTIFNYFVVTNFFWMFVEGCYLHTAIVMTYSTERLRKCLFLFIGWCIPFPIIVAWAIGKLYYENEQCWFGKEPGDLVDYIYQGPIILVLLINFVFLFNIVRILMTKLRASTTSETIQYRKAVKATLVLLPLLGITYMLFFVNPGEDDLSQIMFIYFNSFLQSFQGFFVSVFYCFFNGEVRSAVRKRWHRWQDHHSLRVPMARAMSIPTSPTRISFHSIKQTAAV
T2 sequence (P24387 whole entry): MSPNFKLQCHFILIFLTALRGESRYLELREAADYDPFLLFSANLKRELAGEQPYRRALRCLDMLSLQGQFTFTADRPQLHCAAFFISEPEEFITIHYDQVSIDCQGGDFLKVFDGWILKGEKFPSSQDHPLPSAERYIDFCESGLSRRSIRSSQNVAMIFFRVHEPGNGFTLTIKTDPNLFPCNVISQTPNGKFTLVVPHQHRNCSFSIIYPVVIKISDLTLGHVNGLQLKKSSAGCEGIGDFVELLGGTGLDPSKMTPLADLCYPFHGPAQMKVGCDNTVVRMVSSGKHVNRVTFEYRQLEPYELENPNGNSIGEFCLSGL
The experiment in a line: activators of CRF receptor 2 with binding protein – uHTS hits, confirmation (AID 602473). It is filed as functional. To be noted: read-out: EC50_Mean.

Assay [7] in a line: Luminescence Cell-Based Dose Response HTS to Identify Activators of Luciferase Translation or Activity in H4 […] Cells. [Related pubchem assays: 1829 (Project Summary), 1814 (Primary HTS)]. The assay is classed as functional.

Values joined by “and” are separate entries in the source; they are usually repeats but may differ in a detail not shown here. Identical values can stand only once. Active and inactive are the calls of the source. Cut-off read from the data, not from the text of the source, for most assays here: actives have a measured EC50 and inactives only a lower limit.

Sequence of Cytochrome P450 2C9 (P11712 whole entry): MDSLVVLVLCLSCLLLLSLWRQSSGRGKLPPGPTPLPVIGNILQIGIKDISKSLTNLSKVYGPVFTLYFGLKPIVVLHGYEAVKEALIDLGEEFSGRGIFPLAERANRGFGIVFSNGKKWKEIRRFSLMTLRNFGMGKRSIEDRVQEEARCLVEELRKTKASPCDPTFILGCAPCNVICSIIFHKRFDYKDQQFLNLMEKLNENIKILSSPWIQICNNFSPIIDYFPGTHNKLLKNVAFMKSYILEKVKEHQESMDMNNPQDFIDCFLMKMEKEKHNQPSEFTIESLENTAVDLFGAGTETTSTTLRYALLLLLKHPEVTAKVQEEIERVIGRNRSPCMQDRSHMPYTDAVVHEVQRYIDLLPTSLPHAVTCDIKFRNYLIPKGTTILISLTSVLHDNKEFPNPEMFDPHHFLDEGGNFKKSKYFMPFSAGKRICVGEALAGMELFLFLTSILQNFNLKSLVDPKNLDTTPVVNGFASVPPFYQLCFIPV
Sequence of Cytochrome P450 3A4 (P08684 whole entry): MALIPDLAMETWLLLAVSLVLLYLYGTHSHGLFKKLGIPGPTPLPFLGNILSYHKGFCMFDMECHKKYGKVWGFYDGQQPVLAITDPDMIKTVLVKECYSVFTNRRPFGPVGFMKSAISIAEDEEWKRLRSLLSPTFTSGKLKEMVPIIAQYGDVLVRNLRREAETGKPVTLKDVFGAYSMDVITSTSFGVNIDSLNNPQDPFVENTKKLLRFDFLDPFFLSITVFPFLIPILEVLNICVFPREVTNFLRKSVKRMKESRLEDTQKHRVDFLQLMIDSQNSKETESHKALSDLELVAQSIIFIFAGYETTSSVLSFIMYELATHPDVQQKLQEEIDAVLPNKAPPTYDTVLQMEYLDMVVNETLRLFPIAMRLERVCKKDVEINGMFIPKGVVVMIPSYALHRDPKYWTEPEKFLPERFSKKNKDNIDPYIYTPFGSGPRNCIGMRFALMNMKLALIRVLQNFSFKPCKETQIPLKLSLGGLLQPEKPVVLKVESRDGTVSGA

In the case of `CCN(CC(=O)Nc1ccc(NC(C)=O)cc1)C(=O)C12CC3CC(CC(Cl)(C3)C1)C2`, in assay [1], the EC50 is reported as > 195 µM (not active).

As for `CCOc1cc(C#N)c(NC(=O)c2cccnc2Cl)cc1OCC`, the EC50 in assay [1] is recorded as > 195 µM (not active).

On to `CC(C)c1ccc(CNCCCSc2ncccn2)cc1`, for which the EC50 in assay [2] was 0.163 µM (active); in assay [3] it was > 30 µM (not active).

As for `CCC(C)NC(=O)CN1C(=O)CN=C(c2ccccc2)c2ccccc21` (stereo not drawn), the EC50 in assay [1] is listed as > 195 µM (not active).

As for `COc1cccc(-c2nccc(NCc3cccc(C)c3)n2)c1`, the half-maximal activity concentration (AC50) in assay [4] is 1.58 µM (inconclusive).

In the case of `Nc1ncnc2c1ncn2[C@@H]1O[C@H](CO)C[C@@H]1O`, the EC50 in assay [2] was 0.531 µM (active); in assay [3], > 60 µM (not active).

In the case of `CC(=O)Nc1ccc2nc(NC(=O)c3ccc([N+](=O)[O-])s3)sc2c1`, the EC50 was 0.993 µM (active) in assay [2] and > 60 µM (not active) in assay [3].

Regarding `CCOc1ccc(CN2CCN(Cc3nc4c(s3)CCCC4)CC2CCO)cc1` (stereo not drawn), the EC50 in assay [2] was 0.772 µM (active); in assay [3], > 60 µM (not active).

Turning to `O=C(O)CCC(=O)N1CCc2cc(S(=O)(=O)N3CCCCC3)ccc21`, the AC50 in assay [4] is 15.8 µM (inconclusive).

In the case of `CCN1CCN(c2ccc(S(=O)(=O)N3CCCCC3)cc2NC(=O)Cc2ccccc2F)CC1`, the EC50 in assay [2] is 0.235 µM (active); in assay [3], > 30 µM (not active).

With `CC(C)(C)S(=O)(=O)c1cnc2c(-c3ccc(F)cc3)cnn2c1N`, in assay [5], the concentration at half-maximal activity (AC50) was 7.94 µM (inconclusive).

With `CN(Cc1nc(-c2ccccc2)no1)C(=O)c1ccc2c(c1)OCO2`, the EC50 in assay [1] is on record as > 195 µM (not active).

In the case of `O=C(Nc1cccc(F)c1)N1CC[C@@]2(CCCNC2)C1`, the concentration at half-maximal activity (AC50) in assay [5] was 7.94 µM (inconclusive).

`CCOc1ccc(C(=O)Nc2ccccc2N2CCCC2)cc1`: the concentration at half-maximal activity (AC50) in assay [4] is 14.1 µM (inconclusive).

Regarding `COc1ncc2nc(C)c(=O)n(C3CC3)c2n1`, the AC50 in assay [5] is 25.1 µM (inconclusive).

With `COc1cc(CNCc2c[nH]c3ccccc23)cc(OC)c1`, the EC50 in assay [2] was 2.93 µM (active); in assay [3], > 60 µM (not active).

Regarding `CCOC(=O)c1c(-c2ccccc2)n(C)c2ccc(O)cc12`, the EC50 in assay [1] is > 195 µM (not active).

In the case of `O=C(COC(=O)C1C2CC3OC(=O)C1C3C2)Nc1cccc(Cl)c1` (stereo not drawn), in assay [1], the EC50 is > 195 µM (not active).

Consider `O=C(Oc1ccc2c(c1)CN(Cc1ccccc1)CO2)c1ccccc1`, for which, in assay [5], the half-maximal activity concentration (AC50) is 3.98 µM (inconclusive).

On to `CNC(=O)c1ccsc1NC(=O)c1ccc(S(=O)(=O)N2CCCc3ccccc32)cc1`, for which the results for the EC50 in assay [2] and in assay [3] were 2.02 µM (active) and > 60 µM (inconclusive), respectively.

With `COCCCNC(=O)C1CC(=O)N(CCc2ccc(OC)c(OC)c2)C1` (stereo not drawn), the AC50 in assay [5] is 15.8 µM (inconclusive).

As to `Cc1onc(-c2ccc(Cl)cc2)c1-c1ccnc(SCC(=O)Nc2cc(Cl)cc(Cl)c2)n1`, the EC50 in assay [2] was 1.72 µM (active); in assay [3], > 60 µM (not active).

Take `NS(=O)(=O)c1ccc(NC(=O)COC(=O)C2(c3ccccc3F)CCCC2)cc1`: the EC50 in assay [1] is 26 µM (active).

As for `Cc1c(C(=O)Nc2ccc(Cl)cc2)c2ccccn2c1C(=O)c1ccc([N+](=O)[O-])cc1`, the values for the EC50 in assay [2] and in assay [3] were 0.737 µM (active) and > 60 µM (not active), respectively.

As to `Cn1c(CN2CCCC(C(=O)c3ccc4c(c3)OCO4)C2)nc2ccccc21` (stereo not drawn), the EC50 is 1.35 µM (active) in assay [2] and > 60 µM (inconclusive) in assay [3].

Consider `CCN(CC)C(=O)N[C@@H]1C[C@H]2c3cccc4[nH]cc(c34)C[C@@H]2N(C)C1`, for which the AC50 in assay [5] was 6.31 µM (inconclusive) and 3.98 µM (inconclusive).

For `COc1ccccc1Oc1ccc2c(c1)C(=O)N(c1ccc(Br)c3cccnc13)C2=O`, the EC50 in assay [1] is on record as > 195 µM (not active).

Take `Clc1ccc(Cl)c(Nc2ccnc(SCc3ccccc3)n2)c1`: the AC50 was 3.98 µM (inconclusive) in assay [5] and 6.31 µM (inconclusive) in assay [4].

On to `O=C(CSc1ncc(-c2ccccc2)n1C1CCCC1)N1CCc2ccccc21`, for which the values for the EC50 in assay [6], in assay [2] and in assay [3] were > 53 µM (inactive), 1.81 µM (active) and > 60 µM (not active), respectively.

In the case of `COc1ccccc1NC(=O)Cn1c(=O)c(N(C)C)c(N)n(C)c1=O`, the EC50 in assay [1] is on record as > 195 µM (not active).

In the case of `O=C(NNC(=S)Nc1ccccc1)c1ccco1`, in assay [4], the AC50 is 35.5 µM (inconclusive).

In the case of `COc1ccc(S(=O)(=O)/C(C#N)=C/Nc2cccc(OC)c2)cc1`, the EC50 in assay [1] is given as > 195 µM (not active).

In the case of `Cc1cc2nc(-c3ccc(SCc4ccc(C#N)cc4)nc3)[nH]c2cc1C`, the results for the EC50 in assay [2] and in assay [3] were 2.06 µM (active) and > 60 µM (inconclusive), respectively.

On to `N#CC(=C1CCCC1)c1nc(-c2ccccc2)cs1`, for which, in assay [4], the AC50 was 25.1 µM (inconclusive).

Take `CCN1C(=O)c2ccccc2[S+]([O-])c2ccc(C(=O)NCc3ccc(OC)cc3)cc21` (stereo not drawn): in assay [1], the EC50 is > 195 µM (not active).

For `COc1ccc(C(=O)C2CCCN(Cc3cccn3-c3ccc(Cl)cn3)C2)c(OC)c1` (stereo not drawn), the EC50 in assay [2] was 1.47 µM (active); in assay [3] it was > 60 µM (not active).

For `O=C1NC(=O)[C@@](Cc2ccccc2)(c2cccnc2)N1`, the concentration at half-maximal activity (AC50) in assay [5] was 3.98 µM (inconclusive).

As for `CN(C)Cc1ccccc1-c1cc(N(C)Cc2ccco2)ncn1`, the half-maximal activity concentration (AC50) in assay [5] was 25.1 µM (inconclusive).

For `Fc1cccc(Cl)c1/C=N\N=C1c2ccccc2-c2ccccc21`, the AC50 in assay [4] was 3.16 µM (inconclusive).

Consider `COc1ccc(CN2CC=C(c3ccc(F)cc3)CC2)cc1Br`, for which the EC50 in assay [1] is listed as > 195 µM (not active).

For `c1cncc(CNc2cc(-c3ccoc3)ncn2)c1`, the AC50 in assay [5] was 3.98 µM (inconclusive).

For the compound `CC(C)N(CCNC(=O)C1CCC(=O)N1Cc1ccc(F)cc1)Cc1ccccc1` (stereo not drawn), the AC50 in assay [4] was 22.4 µM (inconclusive).

Consider `COC(=O)[C@@]1(Cc2ccc(F)cc2)[C@H]2c3cc(C(=O)N4CCCC4)n(CCc4c[nH]c5ccc(OC)cc45)c3C[C@H]2CN1C(=O)c1ccccc1`, for which the half-maximal activity concentration (AC50) in assay [5] was 0.251 µM (inconclusive).

`Fc1ccccc1Nc1nc(-c2ccncc2)nc2ccccc12`: the EC50 in assay [2] is 1.32 µM (active); in assay [3] it was > 60 µM (not active).

Regarding `CCC(=O)N(Cc1ccco1)c1nc(-c2ccccc2)cs1`, the concentration at half-maximal activity (AC50) in assay [5] is 39.8 µM (inconclusive).

Regarding `Cc1cc(OCC(=O)N2CCOCC2)ccc1NC(=O)c1ccccc1C`, the EC50 in assay [1] is recorded as > 195 µM (not active).

In the case of `COc1cc(CCC(=O)OCn2nnc3ccccc3c2=O)cc(OC)c1OC`, in assay [1], the EC50 is listed as > 195 µM (not active).

On to `O=C(C1CCN(S(=O)(=O)N2CCOCC2)CC1)N1CCN(c2ccccc2)CC1`, for which the concentration at half-maximal activity (AC50) in assay [4] is 22.4 µM (inconclusive).

On to `CC(=O)OCC(=O)NCC(=O)c1c[nH]c2ccccc12`, for which, in assay [1], the EC50 is > 195 µM (not active).

Consider `Cc1n[nH]c(Nc2ccccc2)c1[N+](=O)[O-]`, for which the AC50 in assay [5] is 25.1 µM (inconclusive).

Consider `CC1CN(S(=O)(=O)c2ccc(C(=O)Nc3nnc(-c4ccc5c(c4)CCCC5)o3)cc2)CC(C)O1` (stereo not drawn), for which the EC50 was 1.86 µM (active) in assay [2] and 3.39 µM (active) in assay [3].

Take `CCN(CC)S(=O)(=O)c1cc(C(=O)Nc2ccccc2C(=O)O)ccc1OC`: the concentration at half-maximal activity (AC50) in assay [5] is 12.6 µM (inconclusive).

As for `C=CCOc1ccc(/C=N\NC(N)=S)cc1`, the EC50 in assay [2] is 1.17 µM (active); in assay [3], > 60 µM (inconclusive).

On to `CN(C)c1ccc(/N=C/c2nc(-c3ccccc3)oc2OC(=O)c2cccc(Br)c2)cc1`, for which, in assay [7], the EC50 was 31 µM (active).

In the case of `C/C(=N\Nc1ccc(C(=O)O)cc1)c1nc2ccccc2n1C`, the EC50 in assay [7] is 18.9 µM (active).

As usually defined, the AC50 is the concentration giving half of the maximal activity seen.

Values taken from ChEMBL document CHEMBL1201862, “PubChem BioAssay data set” (2004).
